tested on: Venturia inaequalis; test: Venturia Test (apple)/protective; type: in vivo; details: 240 h, apple plants, protective spray, evaluation 10 days after inoculation, 100% = no infection, read-out: Efficacy in %
Description: Venturia Test (apple)/protective Solvents: 24.5 parts by weight of acetone • 24.5 parts by weight of dimethylacetamide Emulsifier: 1.0 parts by weight alkylaryl polyglycol ether To produce a suitable preparation of active compound, 1 part by weight of active compound is mixed with the stated amounts of solvent and emulsifier, and the concentrate is diluted with water to the desired concentration. To test for protective activity, young plants are sprayed with the preparation of active compound at the stated application rate. […] The plants are then placed in a greenhouse at about 21° C. and a relative atmospheric humidity of about 90%.

SMILES	pest or weed control at 100 g/ha [%]
Fc1cc(F)c(-c2c(Cl)nc3ncnn3c2N2NC3CCC2C3)c(F)c1 (centres unmarked) [drawing 65]	93
Fc1cccc(Cl)c1-c1c(Cl)nc2ncnn2c1N1NC2CCC1C2 (centres unmarked) [drawing 66]	100
Fc1cccc(F)c1-c1c(Cl)nc2ncnn2c1N1CCCCN1 [drawing 67]	96
Fc1cc(F)c(-c2c(Cl)nc3ncnn3c2N2CCCCN2)c(C(F)(F)F)c1 [drawing 68]	100
Clc1ccc(-c2c(Cl)nc3ncnn3c2N2CCCCN2)c(Cl)c1 [drawing 69]	95
Fc1cc(C(F)(F)F)cc(F)c1-c1c(Cl)nc2ncnn2c1N1CCCCN1 [drawing 70]	100
Fc1cc(F)c(-c2c(Br)nc3ncnn3c2N2CCCCN2)c(F)c1 [drawing 71]	93

tested on: Alternaria solani; test: Alternaria Test (tomato)/protective; type: in vivo; details: tomato plants, protective spray, 750 g/ha, evaluation 7 days after inoculation; 100% = no infection
Description: Alternaria Test (tomato)/protective Solvent: 49 parts by weight of N,N-dimethylformamide Emulsifier: 1 part by weight of alkylaryl polyglycol ether To produce a suitable preparation of active compound, 1 part by weight of active compound is mixed with the stated amounts of solvent and emulsifier, and the concentrate is diluted with water to the desired concentration. […] The plants then remain at 96% relative atmospheric humidity and at a temperature of 20° C.

SMILES	Efficacy in % [%]
Fc1cc(F)c(-c2c(Cl)nc3ncnn3c2N2Cc3ccccc3CO2)c(F)c1 [drawing 100]	100
Fc1cc(F)c(-c2c(Cl)nc3ncnn3c2N2CCCCO2)c(F)c1 [drawing 101]	100
Fc1ccc(-c2c(Cl)nc3ncnn3c2N2CCCCO2)c(Cl)c1 [drawing 102]	100
Fc1cc(F)c(-c2c(Cl)nc3ncnn3c2N2CCC=N2)c(F)c1 [drawing 103]	95

tested on: Pyricularia oryzae; test: not given; type: in vivo; details: rice plants, protective spray, 500 g/ha, evaluation 7 days after inoculation; 100% = no infection

SMILES	Efficacy in % [%]
Fc1ccc(-c2c(Cl)nc3ncnn3c2N2CCCCO2)c(Cl)c1 [drawing 104]	100
Fc1ccc(-c2c(Cl)nc3ncnn3c2N2CCCCO2)c(F)c1 [drawing 105]	100
Fc1cccc(Cl)c1-c1c(Cl)nc2ncnn2c1N1CCCCN1 [drawing 106]	100
